Assay results as given in patent publication US20250195523A1, “ORGANIC MOLECULES FOR TREATING MYELIN PATHOLOGIES” (ICM (INSTITUT DU CERVEAU ET DE LA MOELLE ÉPINIÈRE), priority 2022, published 2025).

Columns and labels:
[1] = system: primary OPCs purified by magnetic cell sorting (MACS) from neonatal cortices; test: Primary OPC cultures purified by MACS, morphological complexity of OLs; assay type: cell-based, mice; conditions: OPCs treated for two days; compared to vehicle; FIG. 2B
Experimental: Brains were collected from PLPGFP and P4 Swiss mice […] and washed 3 times in PBS 1× (Invitrogen) with 1% of penicillin/streptomycin (Sigma). Cortex and corpus callosum were dissected and dissociated using neural tissue dissociation kit (T) (Miltenyi biotec) and with dissociator (gentleMACS Octo Dissociator, Miltenyi Biotec). OPC magnetic cell sorting was performed using anti-PDGFRα-coupled-beads (CD140a-PDGFRα MicroBead Kit, Miltenyi biotec) and MultiMACS Cell24 Separator Plus (Miltenyi biotec). Cells were collected in PBS and amplified for 2 days in a proliferating medium (with growth factors IGF, EGF, FGF, and PDGFα). Then, 40.000 cells were plated in 24 well plates adherent on coverslips, beforehand coated with poly-ornithine (Merck) diluted in 4 volumes of H2O and washed 3 times. Successively, for 2 days of proliferation and differentiation, medium was added with drugs at 250 nM, 500 nM and 750 nM, and their respective vehicles (DMSO, PBS). Cells were fixed in 4% PBS-paraformaldehyde (thermo fisher) for 10 minutes and washed 3 times in PBS-1×.
For coated-coverslip, blocking was performed in a moist chamber for 30 mn at room temperature (RT) in the blocking buffer (0.05% Triton X-100/10% normal goat serum/PBS). Then, coverslip were incubated for 30 mn with the following primary antibodies at RT. Rat anti-PDGFRα (1:250, BD Biosciences); Mouse anti-CNPase (mlgG1, 1:250; Millipore); Rabbit anti-Btub (1:1000; BABCO); Chicken anti-GFAP (1:500, Avelabs), Mouse anti-MBP (mlgG1, 1:150; Abcam); Rabbit anti-Sox10 (1:1000; Proteintech). Following 3 washing in 0.05% Triton X-100/PBS, coverslips were incubated 30 min at RT in dark with appropriate secondary antibodies conjugated with Alexa Fluor 488, 594 and 647 (1:1000; Molecular Probes or Thermo Fisher) and Dapi (1:5000 from working solution at 5 mg/ml; Life Technologies; D1306). Coverslips were washed 3 times in 0.05% Triton X-100/PBS and mounted with Fluoromount-G (SouthernBiotech).
To evaluate cell specific contribution of the drugs directly in OL differentiation and maturation, we used primary OPCs purified by magnetic cell sorting (MACS) from neonatal cortices (P4).

[2] = system: neural progenitor cells (NPCs) obtained from the neonatal SVZ; test: Neonatal neural progenitor cell (neurosphere-derived) differentiation cultures, immunodetection of neural lineages; assay type: cell-based, mice; conditions: for increase in iOLs (Sox10high cells): fold-change between drug treatment and vehicle, FIG. 1G; for neurogenesis (neuronal β-III-tubulin+ cells): 750 nM, compared to vehicle, FIG. 1D
Experimental: NSC medium was prepared using up to 50 ml DMEM/F12 (Gibco), containing 666 μl glucose at 45% (Sigma), 0.5 ml penicillin/streptomycin (Sigma), 250 μl HEPES buffer at 1M (Gibco), 500 μl mL N2 supplement (Gibco), 1 mL B27 supplement (Gibco) and with growth factors Insulin 20 μg/ml (Sigma), EGF at 20 ng/ml (Peprotech), FGF 10 ng/ml (Peprotech). Brains were collected from Swiss mice at P0 and washed 3 times in PBS 1× (Invitrogen) with 1% of penicillin/streptomycin (Sigma). SVZ was dissected, transferred in fresh NSC medium and dissociated with pipette. Cells were amplified in a 25 ml flask (1 million of cells for 5 mL of medium), and maintained in a humidified atmosphere at 37° C. and 5% of CO2. Two-three days after, cells have grown as floating neurospheres and were collected by centrifugation at 500 g for 5 mn, dissociated before adding proliferating NSC medium. After 2 passages, 30.000 cells were plated in 24 well plates adherent on coverslips, beforehand coated with poly-ornithine (Merck) diluted in 4 volumes of H2O and washed 3 times. Drugs were added at different ranges of concentration (250 nM, 500 nM and 750 nM) and their respective vehicles (DMSO, or PBS). Medium (including drugs or vehicle) was changed each 2 days. After 4 days with proliferation factors, a differentiation medium without growth factors was added (with drugs or vehicle) for two days. Cells were washed once in PBS, fixed in 4% PBS-paraformaldehyde (thermofischer) for 10 minutes, and washed 3 times in PBS-1×.
To do so, we first used a culture of mix neural progenitor cells (NPCs) obtained from the neonatal SVZ (postnatal day 1, P1). […] We supplemented the drugs in both the proliferation and differentiation medium to analyze both their effect in neural cell type specification into the different neural lineages, and assess their ability to foster OPC differentiation. […]

[3] = system: cerebellar slices explants; test: Ex vivo cerebellar organotypic explant culture, differentiation and myelination index; assay type: cell-based, mice; conditions: 750 nM, three days (7-10 DIV); for differentiation index (CC1+/Sox10+ OLs number): compared to negative controls, FIG. 3B
Experimental: We prepared cerebellar organotypic cultures from newborn (P0) mice. Cerebellar parasagittal slices (350 μm thick) were cut on a McIlwain tissue chopper and transferred onto 30 mm diameter Millipore culture inserts with […] (Millicell, Millipore). Slices were maintained in incubators at 37° C., under a humidified atmosphere containing 5% CO2 in six-well-plates containing 1 mL of slice culture media. This medium includes basal medium eagle (Invitrogen), 25% complete HBSS, 27 mM D-glucose, 100 U/mL penicillin/streptomycin, 1 mM glutamine (Sigma) and 5% horse serum (New Zealand origin, heat inactivated; Invitrogen). Medium was renewed every 2 days until 7 DIV, reaching the appropriate culture periods to study OPC differentiation and myelination. […] Slices were collected and fixed for 1 h at RT in PBS-4% paraformaldehyde, washed 3 times in PBS, and incubated 20 min at 4° C. in Clark's solution (95% ethanol/5% acetic acid), then washed 3 times in PBS 1×.
For ex-vivo cerebellar slices, slices were incubated 20 min at 4° C. in Clark's solution (95% ethanol/5% acetic acid), then washed 3 times in PBS 1×. Then, sections were incubated for 1 hour in a blocking buffer (0.2% Triton X-100/4% bovine serum albumin/4% donkey serum/PBS). Slices were incubated for 2 hours with the following primary antibodies at RT: Goat anti-Sox10 (1:100, R&D Systems); Rabbit anti-Calbindin (1:1000; Swant); Rat anti-MBP (1:200; Abcam); Mouse anti-CC1 (IgG2b; 1:100, Calbiochem). Then slices were washed 3 times in PBS/0.1% Triton X-100 and incubated in blocking buffer (dark, RT) for 2 hours with appropriate secondary antibodies conjugated with Alexa Fluor 488, 594 and 647 (1:1000; Molecular Probes or Thermo Fisher) and Dapi (1:5000 from working solution at 5 mg/ml; Life Technologies; D1306). Finally, slices were washed 3 times in PBS/0.1% Triton X-100 after incubation and mounted in Fluoromount-G (SouthernBiotech).
Then, we firstly performed a simpler and faster experimental model using cerebellar slices explants to identify the best drugs having pro-oligodendrogenenic and pro-myelinating activities in this ex vivo model, to be used in the in vivo analyses. Indeed, this model allowed us to better assess later aspects of OL maturation, myelination, and cytotoxicity in a richer cellular system, also containing immune cells (microglia/macrophages) that are known to influence oligodendrogenesis and (re) myelination. In this model, the start of myelination takes place after 7 days in culture (FIG. 3A). […] We then analyzed the effect in terms of OL numbers (CC1+/Sox10+ cells) and myelination (MBP labeling on CaBP+ Purkinje cell axons), by immunodetection of all four markers in the same sections. We calculated the differentiation index as the ratio of Sox10+ cells being CC1+, and the myelination index as the ratio CaBP+ axons being MBP+. […] On the one hand, we used the adult focal de/remyelination induced by intracerebral injection of […] (LPC) mimicking de/remyelination of MS, and on the other hand, the neonatal chronic hypoxia model, mimicking PTB hypomyelination.

[4] = system: focal demyelination in the corpus callosum of adult mice; test: Lysolecithin (LPC) induced focal de/remyelination model in adult mice, oral administration in drinking water; assay type: in vivo; conditions: 7 dpl, oral daily
Experimental: We weighted and anesthetized 4 months old RjOrl: SWISS mice (Janvier) with isoflurane (induced at 3%, and maintained at 1.2-1.6%). We induced focal demyelinating lesions by injecting 0.5 μl of a solution of 1% lysolecithin (LPC, Sigma in 0.9% NaCl solution) into the corpus callosum. To do so, a glass-capillary connected to a 10 μl Hamilton syringe was fixed and oriented through stereotaxic apparatus (coordinates: 1 mm lateral, 1.3 mm rostral to Bregma, 1.7 mm deep to brain surface). Animals were left to recover for a few hours in a warm chamber. […] Mice was perfused at 2% cold paraformaldehyde (thermos fisher) at 7 DPI.
For in-vivo cryosections (14-μm thick) of lesions, immunohistochemistry was performed after 30 mn drying at RT in a moist chamber. For myelin staining, ethanol treatment (100%) was performed for 10 mn at RT. Briefly, sections were permeabilized and blocked in a blocking buffer for 1 h (0.05% Triton X-100/10% normal goat serum/PBS). Then, cryosections were incubated overnight with the following primary antibodies at 4° C.: Mouse anti-APC (CC1 IgG2B; 1:100, calbiochem); Rabbit anti-Olig2 (1:500; Millipore); Mouse anti-Olig1 (IgG1; 1:500; NeuroMab); Rat anti-CD68 (1:500, AbD SEROTEC/BioRad); Rabbit anti-IBA1 (1:500, Wako Fujifilm); Mouse anti-MOOG (mlgG1, 1:20; Hybridoma). Then sections were washed 3 times in 0.05% Triton X-100/PBS and incubated 1 hour at RT with appropriate secondary antibodies conjugated with Alexa Fluor 488, 594 and 647 (1:1000; Molecular Probes or Thermo Fisher) and Dapi (1:5000 from working solution at 5 mg/ml; Life Technologies; D1306). Sections were washed 3 times in 0.05% Triton X-100/PBS and mounted with Fluoromount-G (SouthernBiotech).
We analyzed the lesions at 7 days post-lesion (7 dpl), when newly formed OLs have started to remyelinate the lesion in this model. The lesion area was identified by immunodetection of the high cellular density with DAPI staining, reduction of myelin with myelin oligodendrocyte glycoprotein (MOG), and abundance of microglia/macrophages with Iba1 and Cd68. We determined the effect of the drugs to promote oligodendrogenesis at the lesion site by combinatory immunodetection of Olig2, CC1 and Olig1, allowing to distinguish OPCs (Olig2^high/CC1^−/Olig1^nuclear-cyto cells) and three stages in OL differentiation: iOL1 (Olig2^high/CC1^high/Olig1^− cells), iOL2 (Olig2^high/CC1^high/Olig1^high-cyto cells), and mOL (Olig2^low/CC1^low/Olig1^low cells). […] Given the increase in OL differentiation by the drugs administration, without diminishing the pool of OPCs in the lesion area, we assessed for the proliferative status of OPCs, using Mcm2 and Ki67 proliferative markers, finding that both drugs promote a ˜2-fold increase in the density of proliferative OPCs (FIG. 4D) and in the proportion of proliferative OPCs (FIG. 4E).
To investigate the possible anti-inflammatory and pro-regenerative activity of these drugs, we performed staining for microglia/macrophages (Iba1+ cells), their active phagocytic status (Cd68+ cells), together with myelin (MOG) and cell density (DAPI) to identify the lesion area.

C[C@@H]1C(=O)O[C@H]2C[C@@]34[C@H]5C[C@@H](C(C)(C)C)[C@]36[C@@H](OC(=O)[C@@H]6O)O[C@@]4(C(=O)O5)[C@]21O [Sm6, Ginkgolide A]
morphological complexity of OLs (PLP+ cells) [1]: strongly increased

OC(CCN1CCCCC1)(c1ccccc1)C1CCCCC1 (stereo not shown) [Sm10, Trihexyphenidyl]
increase in iOLs (Sox10high cells) [2]: increased tendency not reaching statistical significance

S=C(NC1CCCCC1)N1CCC(c2cnc[nH]2)CC1 [Sm9, Thioperamide]
neurogenesis (neuronal β-III-tubulin+ cells) [2]: positive effect

Cc1cc2c(cc1S(N)(=O)=O)S(=O)(=O)CCC2 [Sm1, Meticrane]
differentiation index (CC1+/Sox10+ OLs number) [3]: increased differentiation index
morphological complexity of OLs (PLP+ cells) [1]: strongly increased

Nc1nc(=O)c2c([nH]1)NCC(CNc1ccc(C(=O)N[C@@H](CCC(=O)O)C(=O)O)cc1)N2C=O.[Ca+2] (stereo partly shown) [Sm11, Calcium folinate]
number of oligodendroglial cells in the remyelinating area (Olig2+ cells) ([4]; sm5 at 5 μg per g, control 942.5±265.7, FIG. 4B): 1558±331 Olig2+ cells per mm^2
density of OPCs (Olig2high/CC1−/Olig1nuclear-cyto cells) in the lesion area ([4]; FIG. 4C): did not change
pro-regenerative microglia (Arg1+ cells) ([4]; FIG. 4I): corresponding increase
actively phagocytic microglia/macrophages (Cd68+ cells) ([4]; control 22.45%, FIG. 4H): 12.13%±5.14
surface occupied by Iba1+ microglia/macrophages in the lesion area ([4]; control 33.64%, FIG. 4G): 27.28%±4.16
increase of each stage of OL differentiation (iOL1, iOL2 & mOL) ([4]; versus control): ~2 fold
increase in the density of proliferative OPCs (Mcm2, Ki67 markers) ([4]; versus control, FIG. 4D): ~2 fold
increase in the proportion of proliferative OPCs ([4]; versus control, FIG. 4E): ~2 fold
neurogenesis (neuronal β-III-tubulin+ cells) [2]: positive effect
morphological complexity of OLs (PLP+ cells) [1]: strongly increased

CC(N)CCCC(C)(C)O (stereo not shown) [Sm2, Heptaminol]
differentiation index (CC1+/Sox10+ OLs number) [3]: increased differentiation index
myelination process (MBP+/CaBP+), myelination index ([3]; compared to vehicle, FIG. 3C): robust increase
morphological complexity of OLs (PLP+ cells) [1]: strongly increased

C#C[C@]1(O)CC[C@H]2[C@@H]3CCC4=CC(=O)CC[C@@H]4[C@H]3CC[C@@]21CC [Sm7, Levonorgestrel]
increase in iOLs (Sox10high cells) [2]: increased tendency not reaching statistical significance
